Reference: article PMC5754397, “Population pharmacokinetics of nintedanib, an inhibitor of tyrosine kinases, in patients with non-small cell lung cancer or idiopathic pulmonary fibrosis” (Cancer Chemotherapy and Pharmacology, 2017)

How the values were obtained:
[1] = Population pharmacokinetic analysis in healthy subjects after intravenous administration of nintedanib (one-compartment model); assay type: in vivo, human; settings: human, plasma, estimate (RSE%)
Description: The pharmacokinetic profile of BIBF 1202 was best described by a one-compartment model with first-order elimination (see Online Resource Fig. S1 for model structure). To account for formation of BIBF 1202 in the intestine or via hepatic first-pass effect, a first-order absorption with lag time (ALAG2) was implemented as per nintedanib absorption. The relative bioavailability (F2) and the absorption-rate constant (k a2) were implemented as functions of nintedanib F1 and k a, respectively (substantial drop in OFV as compared to a model, where F2 and k a2 were estimated independently of F1 and k a). This parametrization accounted for correlations between nintedanib and BIBF 1202 parameters and replaced the full variance–covariance matrix which was not applied due to the sequential modeling approach used. The rate of formation of BIBF 1202 (k met) during nintedanib systemic elimination was accounted by defining it as a function of nintedanib clearance: k met = CL/V2*ffM, where CL and V2 denote the clearance and central volume of distribution of nintedanib respectively, and ffM denotes the proportion of the nintedanib elimination resulting in BIBF 1202 formation. Due to the lack of data for BIBF 1202 given as an intravenous (IV) infusion, several parameter estimates were not identifiable (ffM, BIBF 1202 apparent volume of distribution [V3/F]) and were, therefore, fixed. The value for ffM was derived from pharmacokinetic data after IV administration of nintedanib (Online Resource Table S4) and the ratio of V3/F–V2/F was fixed based on information observed in rats. […] In addition to the (inter-individual) variability of F2 induced by the variability in F1 (F2 being proportional to F1), additional IIV could be implemented for F2.
Table S4 Structural parameters for nintedanib and BIBF 1202 from a population pharmacokinetic analysis based on healthy subjects (n=23^a, 372 observations) after intravenous administration of nintedanib
One subject (3 mg dose) was excluded from analysis due to increasing plasma concentrations of nintedanib after end of infusion

[2] = cited from earlier work
[3] = parameters: method as in PMID 21204634; settings: cited from earlier work
[4] = parameters: method as in ref 13, 21, 22 = [13]; 13. Boehringer Ingelheim (2017) OFEV® (nintedanib) capsules, for oral use; Prescribing information, revised: 08/2017. http://docs.boehringer-ingelheim.com/Prescribing%20Information/PIs/Ofev/ofev.pdf . || [21]; 21. Boehringer Ingelheim (2013) Relative bioavailability of nintedanib given alone and in combination with ketoconazole at steady state in healthy male volunteers (an open-label, randomised, two-way c || [22]; 22. Boehringer Ingelheim (2013) Relative bioavailability of a single oral dose of nintedanib given alone and in combination with multiple oral doses of rifampicin in healthy male volunteers (an open-l); settings: cited from earlier work
[5] = parameters: method as in PMID 20460487, PMID 25299232; settings: cited from earlier work

SMILES: COC(=O)c1ccc2c(c1)NC(=O)/C2=C(\Nc1ccc(N(C)C(=O)CN2CCN(C)CC2)cc1)c1ccccc1 [nintedanib]
- clearance ([1]; healthy subjects (n=23), single intravenous nintedanib infusion 1, 3 or 6 mg, data of absolute bioavailability study [7], read-out: CL, total body clearance for nintedanib (converted)): 2570 mL/min
- Vd ([1]; healthy subjects, intravenous nintedanib, read-out: V2, volume of distribution for nintedanib): 60.9 L
- absolute bioavailability [2]: about 5%
- dose proportionality of total and peak systemic exposures [2]: dose-proportional
- geometric mean terminal elimination half-life [2]: 10 to 15 h
- total fraction of nintedanib and its metabolites absorbed ([2]; estimated): 23%
- time of peak plasma concentrations after oral dosing ([2]; patients with solid tumors): 2 to 4 h
- time to steady state ([2]; twice-daily dosing): ≤ 7 days
- eliminated in urine [3]: Less than 1%
- excreted in the feces [3]: about 94 % of the dose
- increase of nintedanib exposure on co-administration with ketoconazole ([4]; 400 mg ketoconazole (potent P-gp inhibitor)): 60%
- decrease of nintedanib exposure on co-administration with rifampicin ([4]; 600 mg rifampicin (potent P-gp inducer)): 50%
- pharmacokinetic interaction between nintedanib and either docetaxel or pemetrexed [5]: no significant pharmacokinetic interaction
